The results in this text go back to US9062026B2, “Fused pyrimidines and substituted quinazolines as inhibitors of p97” (Cleave Biosciences, Inc., priority 2012, dated 2015).

Where only a bound is given, the exact number is not on record here.

The first assay deals with p97 (Homo sapiens (Human), UniProt P55072). The experiment in a line: P97 ATPase biochem assay (ADP Glo). It is filed as biochemical. The note with it: 20 nM p97, 20 μM ATP, 37° C., 15 minutes; read-out: p97 biochem IC50. Here is the method: The ATPase assay is performed according the following protocol: Purified enzyme (20 nM p97), substrate (20 μM ATP) and a dose titration of compounds are mixed in buffer (50 mM TRIS pH 7.5, 20 mM MgCl2, 0.02% TX-100, 1 mM DTT, 0.2% (v/v) glycerol) and incubated at 37° C. for 15 minutes. The reaction is terminated and the level of product generated is measured using the ADP Glo Assay Kit (Promega, Madison Wis.). Plotting product generated versus compound concentration and using a four-parameter fit model generates an IC50 value for each compounds.
p97, sequence (P55072 whole entry): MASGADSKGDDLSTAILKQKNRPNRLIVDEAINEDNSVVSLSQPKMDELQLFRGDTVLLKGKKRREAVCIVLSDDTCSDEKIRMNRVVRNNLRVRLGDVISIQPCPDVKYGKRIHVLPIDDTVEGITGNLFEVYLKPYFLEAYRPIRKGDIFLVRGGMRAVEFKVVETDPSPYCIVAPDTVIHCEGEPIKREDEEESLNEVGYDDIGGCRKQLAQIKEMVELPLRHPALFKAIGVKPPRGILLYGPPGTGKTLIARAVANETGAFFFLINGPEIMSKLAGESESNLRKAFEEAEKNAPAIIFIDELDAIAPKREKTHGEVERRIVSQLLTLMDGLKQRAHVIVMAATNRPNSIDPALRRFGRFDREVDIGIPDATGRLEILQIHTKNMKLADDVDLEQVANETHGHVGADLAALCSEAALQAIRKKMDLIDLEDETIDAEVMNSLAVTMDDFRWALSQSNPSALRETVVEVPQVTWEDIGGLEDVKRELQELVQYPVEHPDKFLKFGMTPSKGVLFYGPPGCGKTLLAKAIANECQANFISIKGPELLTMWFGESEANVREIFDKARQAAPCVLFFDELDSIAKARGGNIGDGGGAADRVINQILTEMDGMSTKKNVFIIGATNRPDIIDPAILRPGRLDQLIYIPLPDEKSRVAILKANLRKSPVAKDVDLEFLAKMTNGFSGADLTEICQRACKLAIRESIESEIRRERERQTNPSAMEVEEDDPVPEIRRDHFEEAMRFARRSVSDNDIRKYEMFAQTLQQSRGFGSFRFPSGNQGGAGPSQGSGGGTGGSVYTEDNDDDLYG
For `COc1cccc2c(NCc3ccccc3)nc(-n3c(OC)cc4ccccc43)nc12` [drawing 204], the IC50 was less than 2 µM.

With `NCc1cc2ccccc2n1-c1nc2c(c(NCc3ccccc3)n1)CCCC2` [drawing 219], the IC50 is less than 2 µM.

Consider `COCCOc1cccc2c(NCc3ccccc3)nc(-n3c(OC)nc4ccccc43)nc12` [drawing 222], for which the half-inhibitory concentration (IC50) was less than 2 µM.

For `COc1cccc2c(NCc3ccccc3)nc(-n3c(CNC(C)=O)cc4ccccc43)nc12` [drawing 223], the half-inhibitory concentration (IC50) was less than 2 µM.

For `COc1cc2ccccc2n1-c1nc2c(c(NCc3ccccc3)n1)CCCC2` [drawing 226], the half-maximal inhibitory concentration (IC50) was less than 2 µM.

Regarding `OCc1cc2ccccc2n1-c1nc2c(c(NCc3ccccc3)n1)CCCC2` [drawing 227], the IC50 is less than 2 µM.

As to `CN(C)Cc1cc2ccccc2n1-c1nc2c(c(NCc3ccccc3)n1)CCCC2` [drawing 229], the half-inhibitory concentration (IC50) was less than 2 µM.

Take `CC(=O)NCc1cc2ccccc2n1-c1nc2c(c(NCc3ccccc3)n1)CCCC2` [drawing 230]: the concentration for half-maximal inhibition (IC50) is less than 2 µM.

As to `NC(=O)NCc1cc2ccccc2n1-c1nc2c(c(NCc3ccccc3)n1)CCCC2` [drawing 231], the IC50 is less than 2 µM.

Turning to `COC(=O)NCc1cc2ccccc2n1-c1nc2c(c(NCc3ccccc3)n1)CCCC2` [drawing 232], the IC50 was less than 2 µM.

In the case of `CS(=O)(=O)NCc1cc2ccccc2n1-c1nc2c(c(NCc3ccccc3)n1)CCCC2` [drawing 233], the 50% inhibitory concentration (IC50) is less than 2 µM.

Regarding `COc1cccc2c(NCc3ccccc3)nc(-n3c(/C=C/C#N)cc4ccccc43)nc12` [drawing 242], the IC50 was less than 2 µM.

With `COc1cccc2c(NCc3ccccc3)nc(-n3c(/C=C(/C#N)C(N)=O)cc4ccccc43)nc12` [drawing 243], the IC50 is less than 2 µM.

`COc1cccc2c(NCc3ccccc3)nc(-n3c(/C=C/S(C)(=O)=O)cc4ccccc43)nc12` [drawing 244]: the IC50 is less than 2 µM.

The same assay, now with this note: read-out: p97 IC50.
Take `COCCOc1cccc2c(NCc3ccccc3)nc(-n3c(C(C)N)cc4ccccc43)nc12` (stereo not drawn) [2-[2-(1-aminoethyl)-1H-indol-1-yl]-N-benzyl-8-(2-methoxyethoxy)quinazolin-4-amine]: the IC50 was less than 0.3 µM.

`COc1cccc2c(NCc3ccccc3)nc(-n3c(/C=C/C#N)cc4ccccc43)nc12` [(2E)-3-{1-[4-(benzylamino)-8-methoxyquinazolin-2-yl]-1H-indol-2-yl)prop-2-enenitrile]: the half-maximal inhibitory concentration (IC50) is less than 0.3 µM.

For `COc1cccc2c(NCc3ccccc3)nc(-n3c(/C=C(/C#N)C(N)=O)cc4ccccc43)nc12` [(2Z)-3-{1-[4-(benzylamino)-8-methoxyquinazolin-2-yl]-1H-indol-2-yl}-2-cyanoprop-2-enamide], the IC50 is less than 0.1 µM.

As for `COc1cccc2c(NCc3ccccc3)nc(-n3c(/C=C\C#N)cc4ccccc43)nc12` [(2Z)-3-{1-[4-(benzylamino)-8-methoxyquinazolin-2-yl]-1H-indol-2-yl}prop-2-enenitrile], the concentration for half-maximal inhibition (IC50) is less than 0.3 µM.

Consider `COCCOc1cccc2c(NCc3ccccc3)nc(-n3c(CNC(N)=O)cc4ccccc43)nc12` [({1-[4-(benzylamino)-8-(2-methoxyethoxy)quinazolin-2-yl]-1H-indol-2-yl}methyl)urea], for which the half-inhibitory concentration (IC50) was less than 0.1 µM.

With `C#CC(=O)NCc1cc2ccccc2n1-c1nc2c(c(NCc3ccccc3)n1)CCCC2` [N-({1-[4-(benzylamino)-5,6,7,8-tetrahydroquinazolin-2-yl]-1H-indol-2-yl}methyl)prop-2-ynamide], the IC50 is less than 0.1 µM.

For `COCCOc1cccc2c(NCc3ccccc3)nc(-n3c(CNS(C)(=O)=O)cc4ccccc43)nc12` [N-({1-[4-(benzylamino)-8-(2-methoxyethoxy)quinazolin-2-yl]-1H-indol-2-yl}methyl)methanesulfonamide], the 50% inhibitory concentration (IC50) was less than 0.1 µM.

For the compound `COc1cccc2c(NCc3ccccc3)nc(-n3c(CNC(C)=O)cc4ccccc43)nc12` [N-({1-[4-(benzylamino)-8-methoxyquinazolin-2-yl]-1H-indol-2-yl}methyl)acetamide], the IC50 was less than 0.3 µM.

In the case of `Clc1cc2ccccc2n1-c1nc2c(c(NCc3ccccc3)n1)CNCC2` [N-benzyl-2-(2-chloro-1H-indol-1-yl)-5H,6H,7H,8H-pyrido[4,3-d]pyrimidin-4-amine], the IC50 is less than 0.3 µM.

For `COCCOc1cccc2c(NCc3ccccc3)nc(-n3c(OC)cc4ccccc43)nc12` [N-benzyl-2-(2-methoxy-1H-indol-1-yl)-8-(2-methoxyethoxy)quinazolin-4-amine], the IC50 was less than 0.1 µM.

As to `Cc1nc2ccccc2n1-c1nc2c(c(NCc3ccccc3)n1)CCCC2` [N-benzyl-2-(2-methyl-1H-1,3-benzodiazol-1-yl)-5,6,7,8-tetrahydroquinazolin-4-amine], the IC50 is less than 0.3 µM.

With `Cc1cc2ccccc2n1-c1nc2c(c(NCc3ccccc3)n1)COCC2` [N-benzyl-2-(2-methyl-1H-indol-1-yl)-5H,7H,8H-pyrano[4,3-d]pyrimidin-4-amine], the half-maximal inhibitory concentration (IC50) is less than 0.3 µM.

With `Cc1cc2ccccc2n1-c1nc2c(c(NCc3ccccc3)n1)CN(C(C)C)CC2` [N-benzyl-2-(2-methyl-1H-indol-1-yl)-6-(propan-2-yl)-5H,6H,7H,8H-pyrido[4,3-d]pyrimidin-4-amine], the half-inhibitory concentration (IC50) is less than 0.3 µM.

Consider `Cc1[nH]c2ccccc2c1-c1nc2c(c(NCc3ccccc3)n1)CCCC2` [N-benzyl-2-(2-methyl-1H-indol-3-yl)-5,6,7,8-tetrahydroquinazolin-4-amine], for which the IC50 was less than 0.3 µM.

Consider `Cc1cc2c(Cl)cccc2n1-c1nc2c(c(NCc3ccccc3)n1)CNCC2` [N-benzyl-2-(4-chloro-2-methyl-1H-indol-1-yl)-5H,6H,7H,8H-pyrido[4,3-d]pyrimidin-4-amine], for which the concentration for half-maximal inhibition (IC50) is less than 0.3 µM.

Turning to `c1ccc(CNc2nc(-n3c(N4CCOCC4)nc4ccccc43)nc3c2CCCC3)cc1` [N-benzyl-2-[2-(morpholin-4-yl)-1H-1,3-benzodiazol-1-yl]-5,6,7,8-tetrahydroquinazolin-4-amine], the IC50 is less than 0.3 µM.

Take `c1ccc(CNc2nc(-n3c(CN4CCOCC4)cc4ccccc43)nc3c2CCCC3)cc1` [N-benzyl-2-[2-(morpholin-4-ylmethyl)-1H-indol-1-yl]-5,6,7,8-tetrahydroquinazolin-4-amine]: the IC50 was less than 0.3 µM.

In the case of `COCCOc1cccc2c(NCc3ccccc3)nc(-n3c(CN(C)C)cc4ccccc43)nc12` [N-benzyl-2-{2-[(dimethylamino)methyl]-1H-indol-1-yl}-8-(2-methoxyethoxy)quinazolin-4-amine], the IC50 was less than 0.1 µM.

Turning to `Cc1nc2ccccn2c1-c1nc2c(c(NCc3ccccc3)n1)CCCC2` [N-benzyl-2-{2-methylimidazo[1,2-a]pyridin-3-yl}-5,6,7,8-tetrahydroquinazolin-4-amine], the IC50 is less than 0.3 µM.

As for `COCCOc1cccc2c(NCc3ccccc3)nc(-n3c(C)nc4ccccc43)nc12` [N-benzyl-8-(2-methoxyethoxy)-2-(2-methyl-1H-1,3-benzodiazol-1-yl)quinazolin-4-amine], the IC50 is less than 0.3 µM.

On to `COc1cccc2c(NCc3ccccc3)nc(-c3c(C)[nH]c4ccccc34)nc12` [N-benzyl-8-methoxy-2-(2-methyl-1H-indol-3-yl)quinazolin-4-amine], for which the IC50 is less than 0.1 µM.

With `COCCOc1cccc2c(NCc3ccccc3)nc(-n3c(CNC(=O)OC)cc4ccccc43)nc12` [methyl N-({1-[4-(benzylamino)-8-(2-methoxyethoxy)quinazolin-2-yl]-1H-indol-2-yl}methyl)carbamate], the IC50 was less than 0.3 µM.
